Test results taken from ChEMBL document CHEMBL4840339, “A naphthyridine-indole ligand for selective stabilization of G-quadruplexes and conformational conversion of hybrid topology” (Bioorg Med Chem, 2021).
Active and inactive are the calls of the source. No cut-off for these calls is given here.

Legend:
HeLa [1] = experiment: Induction of apoptosis in human HeLa cells assessed as necrotic cells at 6 uM after 24 hrs by Annexin V-FITC/PI staining based flow cytometric analysis (reference value: 0.42 %); assay type: functional
Quadruplex DNA [2] = experiment: Stabilization of Tel26 G4 quadruplex DNA (unknown origin) assessed as thermal stability by measuring increase in melting temperature at 100 uM by variable temperature circular dichroism spectroscopy; assay type: nucleic-acid assay
Quadruplex DNA [3] = experiment: Binding affinity to G4 quadruplex DNA (unknown origin) assessed as assessed as compound-DNA complex formation by 1H-NMR spectra analysis; assay type: nucleic-acid assay
HeLa [4] = experiment: Induction of apoptosis in human HeLa cells assessed as viable cells at 6 uM after 24 hrs by Annexin V-FITC/PI staining based flow cytometric analysis (reference value: 95.8 %); assay type: functional; conditions: read-out: Activity
Quadruplex DNA [5] = experiment: Binding affinity to Bcl-2 G4 quadruplex DNA (unknown origin) assessed as conversion from hybrid topology to parallel topology by measuring positive signal at 266 nm at 10 to 100 uM by circular dichroism spectroscopy; assay type: nucleic-acid assay; conditions: dose 10-100 µM
HeLa [6] = experiment: Cytotoxicity against human HeLa cells assessed as […] in cell viability measured after 48 hrs by MTT assay; assay type: functional, cell-based
HeLa [7] = experiment: Induction of apoptosis in human HeLa cells assessed as early apoptotic cells at 6 uM after 24 hrs by Annexin V-FITC/PI staining based flow cytometric analysis (reference value: 3.28 %); assay type: functional
HeLa [8] = experiment: Induction of apoptosis in human HeLa cells assessed as increase in caspase 3 level at 4 to 6 uM measured after 48 hrs; assay type: functional, cell-based; conditions: dose 4-6 µM
HeLa [9] = experiment: Induction of cell cycle arrest in human HeLa cells assessed as G2/M cell population level at 6 uM incubated for 24 hrs by propidium iodide /RNase staining based flow cytometry (reference value: 36 %); assay type: functional
Quadruplex DNA [10] = experiment: Displacement of thiazole orange from Tel26 G4 quadruplex DNA (unknown origin) assessed as relative affinity by fluorescent intercalator displacement assay; assay type: nucleic-acid assay
HeLa [11] = experiment: Induction of cell cycle arrest in human HeLa cells assessed as G0/1 cell population level at 6 uM incubated for 24 hrs by propidium iodide /RNase staining based flow cytometry (reference value: 38 %); assay type: functional
Quadruplex DNA [12] = experiment: Binding affinity to Tel26 G4 quadruplex DNA (unknown origin) assessed as conversion from hybrid topology to parallel topology by measuring positive signal at 266 nm at 10 to 100 uM by circular dichroism spectroscopy; assay type: nucleic-acid assay; conditions: dose 10-100 µM
HeLa [13] = experiment: Induction of apoptosis in human HeLa cells assessed as late apoptotic cells at 6 uM after 24 hrs by Annexin V-FITC/PI staining based flow cytometric analysis (reference value: 0.42 %); assay type: functional
Quadruplex DNA [14] = experiment: Stabilization of F-Tel21-T G4 quadruplex DNA (unknown origin) assessed as thermal stability by measuring normalized intensity at 2 uM by FRET assay; assay type: nucleic-acid assay
Quadruplex DNA [15] = experiment: Binding affinity to c-KIT1 G4 quadruplex DNA (unknown origin) assessed as conversion from hybrid topology to parallel topology by measuring positive signal at 266 nm at 10 to 100 uM by circular dichroism spectroscopy; assay type: nucleic-acid assay; conditions: dose 10-100 µM
Quadruplex DNA [16] = experiment: Stabilization of G4 quadruplex DNA in human HeLa cells assessed as BG4 foci formation at 6 uM measured after 24 hrs by confocal microscopic analysis; assay type: cell-based
dsDNA = experiment: Stabilization of dsDNA (unknown origin) assessed as thermal stability by measuring increase in melting temperature by UV melting assay; assay type: nucleic-acid assay
Quadruplex DNA [17] = experiment: Stabilization of F-Tel21-T G4 quadruplex DNA (unknown origin) assessed as thermal stability by measuring normalized intensity in presence of 10 to 50 eq dsDNA at 2 uM by FRET-based competition assay; assay type: nucleic-acid assay
Quadruplex DNA [18] = experiment: Binding affinity to Tel23 G4 quadruplex DNA (unknown origin) assessed as conversion from hybrid topology to parallel topology by measuring positive signal at 266 nm at 10 to 100 uM by circular dichroism spectroscopy; assay type: nucleic-acid assay; conditions: dose 10-100 µM
Quadruplex DNA [19] = experiment: Binding affinity to c-MYC G4 quadruplex DNA (unknown origin) assessed as conversion from hybrid topology to parallel topology by measuring positive signal at 266 nm at 10 to 100 uM by circular dichroism spectroscopy; assay type: nucleic-acid assay; conditions: dose 10-100 µM
Quadruplex DNA [20] = experiment: Binding affinity to ds26 non-G4 DNA (unknown origin) assessed as conversion from hybrid topology to parallel topology by measuring positive signal at 266 nm at 10 to 100 uM by circular dichroism spectroscopy; assay type: nucleic-acid assay; conditions: dose 10-100 µM
Quadruplex DNA [21] = experiment: Binding affinity to Tel26 G4 quadruplex DNA (unknown origin) assessed as positive signal at 266 nm measured up to 90 deg C at 100 uM by variable temperature circular dichroism spectroscopy; assay type: nucleic-acid assay
Quadruplex DNA [22] = experiment: Stabilization of Tel26 G4 quadruplex DNA (unknown origin) assessed as thermal stability by measuring increase in melting temperature by UV melting assay; assay type: nucleic-acid assay; conditions: dose 5.0 µM
HeLa [23] = experiment: Induction of cell cycle arrest in human HeLa cells assessed as S cell population level at 6 uM incubated for 24 hrs by propidium iodide /RNase staining based flow cytometry (reference value: 36 %); assay type: functional

ΔTm (Quadruplex DNA [2]): 37 °C
Activity (Quadruplex DNA [3]): Active
Activity (Quadruplex DNA [5]): Active
IC50 (Quadruplex DNA [10]): 6.7 µM
Activity (Quadruplex DNA [12]): Active
Activity (Quadruplex DNA [14]): Active
Activity (Quadruplex DNA [15]): inactive
Activity (dsDNA): inactive
Activity (Quadruplex DNA [17]): Active
Activity (Quadruplex DNA [18]): Active
Activity (Quadruplex DNA [19]): inactive
Activity (Quadruplex DNA [20]): inactive
Activity (Quadruplex DNA [21]): Active
Activity (Quadruplex DNA [22]): Active
Compound: CN(C)CCOc1ccc2c(ccn2-c2ccc3ccc(-n4ccc5cc(OCCN(C)C)ccc54)nc3n2)c1
Activity (HeLa [1]): 1.49%
viability at 6 µM (HeLa [4]): 61.8%
IC50 (HeLa [6]): 4.3 µM
Activity (HeLa [7]): 20.1%
Activity (HeLa [8]): Active
Activity (HeLa [9]): 10%
Activity (HeLa [11]): 57%
Activity (HeLa [13]): 16.6%
Activity (Quadruplex DNA [16]): Active
Activity (HeLa [23]): 33%
